From publication PMC5640650, “NatD promotes lung cancer progression by preventing histone H4 serine phosphorylation to activate Slug expression” (Nature Communications, 2017) come the findings set out here.

Type in all cases: cell-based, human
One data set deals with NatD. In words: Quantitative real-time PCR / western blot of NatD knockdown. Particulars: H1299 cells; for NatD mRNA, remaining relative to scrambled control: stable lentiviral shRNA, qPCR normalized to GAPDH, three independent experiments; for NatD protein level: western blot, vs Scr. An excerpt:
(§1) Fig. 2 NatD is required for lung cancer cell migration and invasion in vitro. a Quantitative real-time PCR analysis of NatD mRNA levels normalized to GAPDH in scrambled control cells (Scr) and NatD-KD1 and NatD-KD2 cells. Results are shown as mean ± s.d. from three independent experiments. Two-tailed Student’s t-test was used. **P < 0.01 compared to Scr control. b Western blot analysis of NatD and Nt-ac-H4 protein levels in scrambled, NatD-KD1, and NatD-KD2 cells. GAPDH and histone H4 served as loading controls. Blots are representative of three independent experiments. c Representative images from wound healing assay of scrambled, NatD-KD1, and NatD-KD2 cells from three independent experiments (left panels). Wound healing assay results are quantified in the histogram (right panel). Results are shown as mean ± s.d. from three independent experiments. Two-tailed Student’s t-test was used. **P < 0.01 compared to Scr control. d Representative images of the migration of scrambled, NatD-KD1, and NatD-KD2 cells in a time-lapse cell tracker migration assay from three independent experiments. Representative images of the migration (e) and invasion (f) of scramble, NatD-KD1, and NatD-KD2 cells with transwell assay from three independent experiments (top panel). Cell counts for the corresponding assays of at least four random microscope fields (×100 magnification). Cell migration and invasion are expressed as a percentage of control (bottom panel). Results are shown as mean ± s.d. from three independent experiments. Two-tailed Student’s t-test was used. **P < 0.01 compared to Scr control
The small interfering RNA (siRNA) target sequences for RNA interference of NatD were inserted into the XhoI/HpaI sites in the pLL3.7 lentiviral vector according to the manufacturer’s recommendations (American Type Culture Collection, USA). The oligonucleotides were:
Total RNA from tissue samples and cultured cells was extracted using TRIzol reagent (Invitrogen). cDNAs were synthesized with a HiScript 1st Strand cDNA Synthesis Kit (Vazyme Biotech, China). Quantitative RT-PCR was performed using a FastStart Universal SYBR Green Master (Roche) according to the manufacturer’s instructions in a Rotor-Gene 6000 (Corbett Research) in a final volume of 20 μl. Cycling conditions were 94 °C for 15 s, 60 °C for 30 s, and 72 °C for 30 s. Each reaction was performed in triplicate. The primer sequences for RT-PCR are listed in Supplementary Table 2 and Table 3.
A general note: Real-time PCR tracks product formation cycle by cycle.

The next data set has as its system histone H4. In words: Western blot of histone H4 modifications, H1299 cells. Particulars: total lysates, vs Scr.
Source text: as §1
Fig. 6 Nt-acetylation of histone H4 antagonizes phosphorylation of histone H4 serine 1 to regulate Slug expression. a Western blot analysis of indicated histone H4 modifications in Scr and NatD-KD H1299 cells. Histone H4 served as a loading control. b ChIP analysis of the enrichment of indicated histone H4 modifications on the Slug promoter in Scr and NatD-KD H1299 cells. IgG served as a negative control. Results are shown as mean ± s.d. from three independent experiments; two-tailed Student’s t-test, *P < 0.05, **P < 0.01 compared with the Scr control. c ChIP analysis of the enrichment of H3K4me3 and H3K27me3 on the Slug promoter in Scr and NatD-KD H1299 cells. IgG served as a negative control. Results are shown as mean ± s.d. from three independent experiments; two-tailed Student’s t-test, **P < 0.01 compared with the Scr control. d Western blot analysis of indicated proteins from H1299 cells overexpressing NatDΔ or wild-type NatD. Histone H4 served as a loading control. e ChIP analysis of the enrichment of Nt-ac-H4 and H4S1ph on Slug promoter in H1299 cells overexpressing NatDΔ or wild-type NatD. IgG served as a negative control. Results are shown as mean ± s.d. from three independent experiments; two-tailed Student’s t-test, *P < 0.05, **P < 0.01 compared with the wild-type control
Cellular proteins were extracted by RIPA lysis buffer at high salt concentration (420 mM NaCl), and western blot analysis was performed in accordance with standard protocols. Scans of enhanced chemiluminescence (ECL) films showing uncropped blots are presented in Supplementary Fig. 10. […]

A further data set concerns A549 cells. In words: Transwell migration and invasion assay, A549 cells. Particulars: vs Scr. The method, then:
The in vitro viability of H1299 cells was assessed using the Cell Counting Kit-8 (CCK-8, Dojindo, Japan) according to the manufacturer’s protocol. Flow cytometric analysis of apoptosis was assessed by Annexin V and PI staining using the Annexin V-APC Apoptosis Detection Kit (KeyGEN BioTECH, China) according to the manufacturer’s guide. For cell cycle analysis, cells were harvested and fixed at 4 °C overnight with 70% ethanol. Cells were washed twice with PBS, and their DNA was stained using a Cell Cycle Detection Kit (KeyGEN BioTECH, China). The samples were analyzed by flow cytometry (Becton Dickinson, NJ, USA), and results were analyzed with FlowJo software according to the manufacturer’s instructions. For the wound healing assay, cells were plated to confluence in a 6-well plate, and the cell monolayer was scratched using a pipette tip. Representative photos were taken using a digital camera mounted on an inverted microscope (Olympus) at indicated times. Live cell imaging was performed using the HoloMonitor M4 time-lapse cytometer (Phase Holographic Imaging, Sweden). […]
of A549 cells. […] (bottom) Quantification of cell migration and invasion expressed as a percentage of Scr control; mean ± s.d. from three independent experiments; two-tailed Student’s t-test, **P<0.01 compared to Scr control. […]

Regarding “NatD-KD1: Human NatD shRNA KD1: 5′-GATGAAGAAGGTTATGTTA-3′, lentiviral (shRNA, lentiviral)”, in the data set with NatD, the “NatD mRNA, remaining relative to scrambled control” value is 30% and the NatD protein level result was “decreased”. Further, the “level of Nt-ac-H4” value with histone H4 is listed as “significantly reduced”. In addition, the “cell migration and invasion (transwell)” value in the data set with A549 cells is “inhibits cell migration and invasion”.

On to “NatD-KD2: Human NatD shRNA KD2: 5′-GGTTGAATGTCTCCATTGA-3′, lentiviral (shRNA lentiviral)”, for which, in the data set on NatD (KD2 vs KD1), the NatD knockdown quality entry is on record as “somewhat better knockdown”. In the data set with NatD, the “NatD mRNA, remaining relative to scrambled control” value is on record as 30% and the NatD protein level entry is listed as “decreased”. In the data set with histone H4, the “level of H4R3me2a” value is on record as “slightly increased”, the “level of H4R3me2s” value is “slightly decreased”, the “level of H4S1ph” value is given as “significantly increased” and the “level of Nt-ac-H4” value is on record as “significantly reduced”. Also, the “levels of H4K5ac, H4K8ac, or H4K12ac” value with histone H4 was “No significant change”. Further, the “level of Nt-ac-H4” value in the data set on histone H4 (listed as NatD knockdown) is on record as “greatly decreased”. The “cell migration and invasion (transwell)” value in the data set on A549 cells was “inhibits cell migration and invasion”.
